# Results from patent US20090208508A1, “NOVEL USE OF UBIQUITIN C-TERMINAL HYDROLASE-L1” (SK CORPORATION, priority 2005, published 2009).
# Tests used:
# UCH-L1 [1] = assay: Western blotting of UCH-L1 expression in B16F10 stable cells expressing UCH-L1 specific RNAi (lentivirus); assay type: cell-based, mouse; conditions: Zeocin-selected, in comparison with normal B16F10 cells and cells expressing irrelevant RNAi (SEQ ID No. 3)
# Method: The expression level of UCH-L1 in B16F10 mouse melanoma cell line was analyzed by using the Western blotting with anti-UCH-L1 antibody in comparison with that of H157 lung cancer cell line overexpressing UCH-L1. It was determined that UCH-L1 is expressed also in B16F10 cell lines.
# B16F10 cells (2.5×10^5 cells, 70˜80% confluency) were seeded on the cell culture dish. After 24 h, these cells were infected with 1 mL of lentivirus (VCA™, Vectorcorea, Inc., Seoul, Korea) expressing irrelevant RNAi or UCH-L1 specific RNAi. 500 μL ( ? ) (virus titer 1[…]10^7 IFU/mL) of lentivirus expressing the sequence specific shRNAi (SEQ ID Nos. 3, 8, 9, and 10) was used for infection of 2.5×10^5 of B16F10 cells.
# Polyburene ([…]) was added thereto, then the cell culture dish was shaken slowly up and down. After incubation for 6 h at 37[…] under 5% CO2, the virus soup was changed with the RPMI-1640 supplemented with 10% FBS. B16F10 cells were infected at twice with lentivirus on 24th hour after the first infection. However the incubation time for second infection was 12 h, not 6 h. After 24 h from the second infection, B16F 10 cells were harvested with trypsin and subcultured on the other dish by diluting the cells with RPMI-1640 (1/16 dilution).
# After 24 h, cells were maintained with the cell culture media with 5 μg/mL of Zeocin. For about 14 days, the cell culture media was changed with fresh media containing same amount of Zeocin every three days. On 14th day after start of selection with Zeocin, only cells having the resistance to Zeocin were survival and these cells were infected with lentivirus stably expressing UCH-L1 specific RNAi (shRNAi, short hairpin RNA). On 14th day after start of selection with Zeocin, the colony was formed by the cells having the resistance to Zeocin. The colonized cells were selected and re-subcultured with fresh media. From this method, we could prepare UCH-L1 expression reduced stable cell lines. […]
# [2] = test system: B16F10 mouse melanoma cells; assay: Experimental pulmonary metastasis: B16F10 stable cells injected into tail vein, black colonies on lung surface counted; assay type: in vivo, BALB/C nude mouse; conditions: 1x10^6 cells single-injected into tail vein, 14th day after injection, vs control B16F10 cells expressing irrelevant RNAi
# Method: We tried to elucidate whether UCH-L1 is a key target molecule related to cancer metastasis through the experimental metastasis using animal model. Normal B16F10 mouse melanoma cells are highly invasive and its first target organ in metastatic process is lung. Using lentivirus-based system, we prepared the B16F10 stable cells in which UCH-L1 was knock-downed.
# After preparing B16F10 stable cells, we examined whether the metastasis to lung was decreased when the B16F 10 stable cells were injected intravenously into the tail vein.
# As stated above, after the UCH-L1 expression knock-downed B 16F 10 stable cells were selected with Zeocin, these cells (1[…]10^6 cells) were single-injected into the tail vein of BALB/C nude mouse. On 14th day after injection, the metastasis to lung was investigated. (For control set, BALB/C mouse were injected with same amount of B16F10 stable cells expressing irrelevant RNAi (control lentiviral vector))
# UCH-L1 [3] = assay: Preliminary experiments: UCH-L1 expression level with siRNA on mouse-base sequences; assay type: cell-based
# UCH-L1 [4] = assay: Preliminary experiments: UCH-L1 expression level with siRNA on human-base sequences; assay type: cell-based
Substance,expression of UCH-L1 (Western blotting) (UCH-L1 [1]),reduction of metastasis to lung (black spherical colonies on lung surface) [2],expression level of UCH-L1 (UCH-L1 [3]),expression level of UCH-L1 (UCH-L1 [4])
"ha: UCH-L1 specific shRNAi (SEQ ID No. 8), target sequence common to human and mouse, expressed by lentivirus (guide CCCGAGATGCTGAACAAAG; listed as Homo sapiens)",reduced,92%,effectively reduced,effectively reduced
"ma: UCH-L1 specific shRNAi (SEQ ID No. 9), mouse target sequence, expressed by lentivirus (guide AGCTGAAGCCGATGGAGATTA; listed as Mus musculus)",not reduced,,,
"mb: UCH-L1 specific shRNAi (SEQ ID No. 10), mouse target sequence, expressed by lentivirus (guide CCTAAAGTTTACTTCATGAAG; listed as Mus musculus)",reduced,62%,effectively reduced,
